Holding throughout (assay): relative viability (nuclei count vs DMSO), 5 days (fraction); higher = more cells survive
Compound in the assay “Avagacestat + Linsitinib”: NC(=O)[C@@H](CCC(F)(F)F)N(Cc1ccc(-c2ncon2)cc1F)S(=O)(=O)c1ccc(Cl)cc1 [Avagacestat] + C[C@]1(O)C[C@@H](c2nc(-c3ccc4ccc(-c5ccccc5)nc4c3)c3c(N)nccn32)C1 [Linsitinib] (partner 1 µM)
The gist of the method:
(§1)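 A single step with final 0.05% Triton X-100, 1% formaldehyde and 1 ug/ml Hoechst fixed the cells and stained nuclei 5 days after treatment. Lung cancer cell lines in 1536-well plates had been treated by pin tool the day after seeding with one drug alone or a fixed anchor-drug dose plus five library-drug doses (not always all listed) in √10 steps, and nuclei were counted on 4× images. Relative viability is the ratio of nuclei in treated wells to nuclei in vehicle wells, taken as the median of duplicate plates.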

Compound in the assay “Avagacestat + Tozasertib”: NC(=O)[C@@H](CCC(F)(F)F)N(Cc1ccc(-c2ncon2)cc1F)S(=O)(=O)c1ccc(Cl)cc1 [Avagacestat] + Cc1cc(Nc2cc(N3CCN(C)CC3)nc(Sc3ccc(NC(=O)C4CC4)cc3)n2)n[nH]1 [Tozasertib] (partner 0.1 µM)
The gist of the method:
as §1

Compound in the assay “Avagacestat + OSI-027”: NC(=O)[C@@H](CCC(F)(F)F)N(Cc1ccc(-c2ncon2)cc1F)S(=O)(=O)c1ccc(Cl)cc1 [Avagacestat] + COc1cccc2cc(-c3nc([C@H]4CC[C@H](C(=O)O)CC4)n4ncnc(N)c34)[nH]c12 [OSI-027] (partner 0.5 µM)
A digest of the protocol: as §1

Compound in the assay “Avagacestat + Crizotinib”: NC(=O)[C@@H](CCC(F)(F)F)N(Cc1ccc(-c2ncon2)cc1F)S(=O)(=O)c1ccc(Cl)cc1 [Avagacestat] + C[C@@H](Oc1cc(-c2cnn(C3CCNCC3)c2)cnc1N)c1c(Cl)ccc(F)c1Cl [Crizotinib] (partner 1 µM)
A digest of the protocol:
as §1

4 cell lines from the supplement of paper PMC10307832 can be followed below.

Take NCI-H1975: the relative viability was found to be 1.14 in the assay with Avagacestat + Linsitinib (first compound 0.08 µM); 1.19 with Avagacestat + Linsitinib (first compound 0.253 µM); 1.04 with Avagacestat + Linsitinib (first compound 0.8 µM); 0.943 with Avagacestat + Linsitinib (first compound 2.53 µM); 0.994 in the assay with Avagacestat + Linsitinib (first compound 8 µM); 1.01 with Avagacestat + Tozasertib (first compound 0.08 µM). The relative viability was 0.945 in the assay with Avagacestat + Tozasertib (first compound 0.253 µM); 0.928 in the assay with Avagacestat + Tozasertib (first compound 0.8 µM); 0.603 in the assay with Avagacestat + Tozasertib (first compound 2.53 µM); 0.367 in the assay with Avagacestat + Tozasertib (first compound 8 µM); 0.874 with Avagacestat + OSI-027 (first compound 0.08 µM); 0.709 in the assay with Avagacestat + OSI-027 (first compound 0.253 µM). In addition, the relative viability with Avagacestat + OSI-027 (first compound 0.8 µM) is 0.873; with Avagacestat + OSI-027 (first compound 2.53 µM), 0.582; in the assay with Avagacestat + OSI-027 (first compound 8 µM), 0.603; with Avagacestat + Crizotinib (first compound 0.08 µM), 0.989; in the assay with Avagacestat + Crizotinib (first compound 0.253 µM) it was 1.1; in the assay with Avagacestat + Crizotinib (first compound 0.8 µM), 1.1. Moreover, the relative viability in the assay with Avagacestat + Crizotinib (first compound 2.53 µM) is 0.926; in the assay with Avagacestat + Crizotinib (first compound 8 µM), 0.905.

Regarding SW 1573, the relative viability in the assay with Avagacestat + Linsitinib (first compound 0.08 µM) amounted to 0.894; in the assay with Avagacestat + Linsitinib (first compound 0.253 µM) it was 0.876; with Avagacestat + Linsitinib (first compound 0.8 µM), 0.756; with Avagacestat + Linsitinib (first compound 2.53 µM), 0.771; with Avagacestat + Linsitinib (first compound 8 µM), 0.699; with Avagacestat + Tozasertib (first compound 0.08 µM) it was 0.169. The relative viability in the assay with Avagacestat + Tozasertib (first compound 0.253 µM) was 0.195; with Avagacestat + Tozasertib (first compound 0.8 µM), 0.173; with Avagacestat + Tozasertib (first compound 2.53 µM), 0.217; in the assay with Avagacestat + Tozasertib (first compound 8 µM), 0.176; in the assay with Avagacestat + OSI-027 (first compound 0.08 µM), 0.8; with Avagacestat + OSI-027 (first compound 0.253 µM), 0.654. Also, the relative viability with Avagacestat + OSI-027 (first compound 0.8 µM) turned out to be 0.806; with Avagacestat + OSI-027 (first compound 2.53 µM), 0.61; in the assay with Avagacestat + OSI-027 (first compound 8 µM), 0.446; with Avagacestat + Crizotinib (first compound 0.08 µM), 0.844; with Avagacestat + Crizotinib (first compound 0.253 µM), 0.905; in the assay with Avagacestat + Crizotinib (first compound 0.8 µM), 0.777. Moreover, the relative viability with Avagacestat + Crizotinib (first compound 2.53 µM) came to 0.816; in the assay with Avagacestat + Crizotinib (first compound 8 µM), 0.709.

Consider LU99A, for which the relative viability with Avagacestat + Linsitinib (first compound 0.08 µM) is 0.598; with Avagacestat + Linsitinib (first compound 0.253 µM) it was 0.561; with Avagacestat + Linsitinib (first compound 0.8 µM) it was 0.63; in the assay with Avagacestat + Linsitinib (first compound 2.53 µM), 0.563; in the assay with Avagacestat + Linsitinib (first compound 8 µM), 0.644; in the assay with Avagacestat + Tozasertib (first compound 0.08 µM) it was 0.246. For the same cell line, the relative viability in the assay with Avagacestat + Tozasertib (first compound 0.253 µM) came out at 0.238; with Avagacestat + Tozasertib (first compound 0.8 µM), 0.244; in the assay with Avagacestat + Tozasertib (first compound 2.53 µM) it was 0.235; with Avagacestat + Tozasertib (first compound 8 µM) it was 0.273; with Avagacestat + OSI-027 (first compound 0.08 µM), 0.285; with Avagacestat + OSI-027 (first compound 0.253 µM), 0.28. The relative viability was determined as 0.278 in the assay with Avagacestat + OSI-027 (first compound 0.8 µM); 0.286 with Avagacestat + OSI-027 (first compound 2.53 µM); 0.266 with Avagacestat + OSI-027 (first compound 8 µM); 0.521 with Avagacestat + Crizotinib (first compound 0.08 µM); 0.646 in the assay with Avagacestat + Crizotinib (first compound 0.253 µM); 0.571 with Avagacestat + Crizotinib (first compound 0.8 µM). In addition, the figures for the relative viability with Avagacestat + Crizotinib (first compound 2.53 µM) and in the assay with Avagacestat + Crizotinib (first compound 8 µM) were 0.595 and 0.628, respectively.

With NCI-H2405, the relative viability with Avagacestat + Linsitinib (first compound 0.08 µM) was 0.873; with Avagacestat + Linsitinib (first compound 0.253 µM), 0.852; with Avagacestat + Linsitinib (first compound 0.8 µM), 1; with Avagacestat + Linsitinib (first compound 2.53 µM), 0.627; with Avagacestat + Linsitinib (first compound 8 µM), 0.737; in the assay with Avagacestat + Tozasertib (first compound 0.08 µM), 0.718. Also, the relative viability with Avagacestat + Tozasertib (first compound 0.253 µM) is 0.751; with Avagacestat + Tozasertib (first compound 0.8 µM), 0.747; with Avagacestat + Tozasertib (first compound 2.53 µM) it was 0.714; with Avagacestat + Tozasertib (first compound 8 µM) it was 0.661; with Avagacestat + OSI-027 (first compound 0.08 µM), 0.628; in the assay with Avagacestat + OSI-027 (first compound 0.253 µM), 0.638. Moreover, the relative viability with Avagacestat + OSI-027 (first compound 0.8 µM) worked out at 0.603; with Avagacestat + OSI-027 (first compound 2.53 µM), 0.571; with Avagacestat + OSI-027 (first compound 8 µM), 0.516; with Avagacestat + Crizotinib (first compound 0.08 µM), 0.881; with Avagacestat + Crizotinib (first compound 0.253 µM), 0.825; with Avagacestat + Crizotinib (first compound 0.8 µM), 0.81. For the same cell line, the relative viability was found to be 0.849 in the assay with Avagacestat + Crizotinib (first compound 2.53 µM) and 0.853 with Avagacestat + Crizotinib (first compound 8 µM).
